Here are results for one molecule from patent publication US9943500B2, “Methods of treating topical microbial infections” (LUODA PHARMA PTY LIMITED, priority 2013, dated 2018).

Assay [1] concerns ATCC 49775 reference strain. Nature of the assay: Microdilution time-kill assay (optical density). Particulars: 48 hour period; one, four and eight times the MIC. (In general: Broth dilution looks for growth in wells or tubes with falling amounts of substance.)
Method: Time-kill assays were performed according to the M26-A guidelines of the CLSI, with modifications. The test compounds and ampicillin were serial diluted in CAMHB across the rows of a 96 well plate and a bacterial suspension was prepared and added in the same manner as the MIC testing. The 96 well plates were then incubated at 37° C. for 48 hours being removed at specific time points and OD for the positive control wells as well as one, four and eight times the MIC of the compound specific to the strain being tested were assessed using a spectrophotometer at a wavelength of 600 nm. The time points assessed were 0, 1, 2, 4, 8, 12, 24 and 48 hours after the addition of the bacterial suspension to the wells. Each test compound was tested in triplicate while ampicillin was tested in duplicate and this test was independently repeated. […] One strain from each of the categories of Staphylococcus in the isolate collection (methicillin-sensitive, methicillin resistant and coagulase negative) were selected as well as the ATCC reference strain for comparison. These strains were strains MSS 1, MSS 11, MRSA 9 and the ATCC 49775 reference strain.
A further assay has as its system Staphylococcus aureus. As to the kind of experiment: Skin wound infection model in mice, topical ointment (Example 5). It is filed as in vivo. As to conditions: LP1369 ointment 20 mg/g, 11 treatments. From the text: Preliminary studies prior to the conduct to the current study established a new method of skin infection arising from a detailed study of the models mentioned above. Briefly, study mice are anaesthetised, a patch of dorsal skin is clipped to reveal the skin and a circular area of skin is removed with a hand held punch, leaving a wound on the dorsum with a central cavity. The wound is infected with a known number of the challenge organism. Approximately four to six hours after infection, the wound is either treated topically with a vehicle formulation or an active formulation. The infected skin wound is retreated every 12 hours for a total of 11 treatments. Mice are humanely euthanased, the area of the original infected wound is dissected and removed and its bacterial content quantified by standard microbiologic tests. In this way, the change in bacterial concentration due to treatment with the active formulation can be readily determined by examining the reduction in bacterial burden compared with the vehicle control.
Fresh cultures of bacteria were grown on Sheep Blood Agar at 37° C. for 16-18 hours. […] The density of the suspension was checked by measuring absorbance at 600 nm, using a spectrophotometer with saline as a blank, to confirm the target density at a reading of approximately 0.100, consistent with a bacterial density of 2.5×10^8 CFU/ml. […]

Turning to `CC[C@@H](C(=O)[C@@H](C)[C@@H](O)[C@H](C)CCc1ccc(C)c(O)c1C(=O)O)[C@H]1O[C@](CC)([C@H]2CC[C@](O)(CC)[C@H](C)O2)C[C@@H]1C` [LP 1369, Lasalocid], in assay [1], the “growth (optical density) compared to growth control” value is “prevented the growth”. For the same molecule, the “decrease in bacterial load compared to vehicle control mice” value with Staphylococcus aureus is “statistically significant”. Also, the “reduction of the bacterial population” value in the assay on Staphylococcus aureus (every 12 hours, versus vehicle) is “greater than 99%”.
